Reference: patent publication US20210093645A1, “COMBINATION ANTI CANCER THERAPY WITH AN IAP ANTAGONIST AND AN ANTI PD-1 MOLECULE” (Debiopharm International S.A., priority 2017, published 2021)
Entries after “also recorded” stand apart in the source; their conditions may differ. Numbered stars: 1 amine (or outer) side, 2 acyl side, 3 side chain; on linkers, the order of the positions; unused ones are H or OH. Bridge positions count the residues as written; N and C are the ends. Square brackets hold non-standard residues; d marks the D form. Peptide text beside a SMILES is read from it. I, II: the chains in the order shown. Hexamethylenediamine = C(CCCN[*:2])CCN[*:1]; Dip = N[C@H](C(=O)O)C(c1ccccc1)c1ccccc1; Chg = N[C@H](C(=O)O)C1CCCCC1; NMeA = CN[C@@H](C)C(=O)O

Tests used:
antigen-presenting cells = settings: cited from earlier work
cIAP1 = target: T1, cIAP1 (Homo sapiens, UniProt Q13490); assay: immunohistochemistry of tumor biopsies before and after Debio 1143, cIAP1 staining; format: in vivo; settings: head & neck cancer patients, n=12; 200 mg Debio 1143 p.o. daily day 1 to 15; biopsy after vs before treatment
T1 construct: from tissue; host or cells: tumor biopsies of patients with squamous cell carcinoma of the head and neck
Protocol: (§1) The study enrolled adult patients with newly diagnosed histologically proven squamous cell carcinoma of the oral cavity, oropharynx, hypopharynx or larynx. During a screening period of two weeks (days −14 to −1), a tumor biopsy was taken and analyzed. Treatment was from day 1 to day 15 (+/−2 days) and consisted (in one arm) of daily administration p.o. of 200 mg Debio 1143. At the end of this treatment period, a second tumor biopsy was taken and analyzed, and the patients underwent surgery. Biopsies were analyzed by immunohistochemical methods. Staining for cIAP1 was carried out using a Dako autostainer automaton (Agilent). The EPR4673 […] mAb (Abcam) was utilized at a 1/100 dilution, and tissue slides were exposed to the antibody for 20 min. Pretreatment of the slides was with EnVision FLEX Target Retrieval Solution, Low pH; the EnVision FLEX system (chromogen: DAB) was employed for visualization of the signal. EnVision Flex system and reagent were from Agilent. The same protocol was applied for PD-L1 staining. The E1 L3N rabbit mAb (Cell Signaling Technology) was used at a 1/500 dilution.

[1] = test system: syngeneic colon carcinoma cell line CT26; assay: CT26 syngeneic tumor model, Debio 1143 pretreatment then anti-PD-1 (Example 4); format: in vivo, BALB/c mice
Protocol: Five groups (n=8) of adult female BALB/c mice (obtained from Shanghai Lingchang Bio-Technology Co.) were inoculated in the right lower flank with 0.5×10^6 cells of the syngeneic colon carcinoma cell line CT26. When average tumor size reached about 50 mm^3 (day 1), animals received either pretreatment consisting of p.o. SMAC mimetic Debio 1143 (Debiopharm) at a dose of 100 mg/kg or vehicle as indicated in Table 3a. The dosing was repeated on each day for 7 days (day 1-7). […] Another set of two groups (vehicle- and Debio 1143-pretreated animals) received biweekly i.p. 10 mg/kg of anti-PD-1 antibody (Mouse surrogate antibody, anti-mouse PD-1, Clone: RMP1-14, BioXcell). A final group of Debio 1143-pretreated animals received both anti-PD-1 antibody as well as was continued on daily Debio 1143. Tumor volumes and body weights were assessed trice weekly. Tumor size was measured in two dimensions using a caliper, and the volume was expressed in mm^3 using the formula: V=0.5 a×b^2 where a and b are the long and short diameters of the tumor, respectively.

CD8+ T-lymphocytes = assay: immunohistochemistry of tumor biopsies before and after Debio 1143, CD8 staining; format: in vivo, human; settings: head & neck cancer patients, n=12; 200 mg Debio 1143 p.o. daily day 1 to 15; biopsy after vs before treatment
Protocol: (§2) The study enrolled adult patients with newly diagnosed histologically proven squamous cell carcinoma of the oral cavity, oropharynx, hypopharynx or larynx. During a screening period of two weeks (days −14 to −1), a tumor biopsy was taken and analyzed. Treatment was from day 1 to day 15 (+/−2 days) and consisted (in one arm) of daily administration p.o. of 200 mg Debio 1143. At the end of this treatment period, a second tumor biopsy was taken and analyzed, and the patients underwent surgery. T cells were identified using CD3 rabbit mAb 2GV6 from Ventana Roche (provided as a ready-to-use solution). Slides were processed on a Ventana Benchmark Ultra automaton. Exposure to antibody was 20 min. Pretreatment of the slides (64 min) was with cell conditioning solution CC1 (Ventana); the Optiview system (Ventana) (chromogen: DAB) was employed for visualization of the signal. Staining of CD8 and CD4 T cells was by the same protocol. The CD8 antibody was the SP57 rabbit mAb, and the CD4 antibody was the SP35 rabbit mAb. Both antibodies were from Ventana Roche and were provided as ready-to-use solutions. The antibody selected for PD-1 detection was the NAT105 mouse mAb that was also provided as a ready-to-use solution (Cell Marque). The protocol for PD-1 detection was the same as that used for CD3 staining, except that antibody exposure and pretreatment times were each 16 min.

PD-L1 = assay: immunohistochemistry of tumor biopsies before and after Debio 1143, PD-L1 staining; format: in vivo, human; settings: head & neck cancer patients, n=12; 200 mg Debio 1143 p.o. daily day 1 to 15; biopsy after vs before treatment
Protocol: as §1

PD-1 = assay: immunohistochemistry of tumor biopsies before and after Debio 1143, PD-1 staining; format: in vivo, human; settings: head & neck cancer patients, n=12; 200 mg Debio 1143 p.o. daily day 1 to 15; biopsy after vs before treatment
Protocol: as §2

CD4+ T-lymphocytes = assay: immunohistochemistry of tumor biopsies before and after Debio 1143, CD4 staining; format: in vivo, human; settings: head & neck cancer patients, n=12; 200 mg Debio 1143 p.o. daily day 1 to 15; biopsy after vs before treatment
Protocol: as §2

[2] = test system: syngeneic colon carcinoma cell line MC38; assay: MC38 syngeneic tumor model, Debio 1143 pretreatment then anti-PD-L1 (Example 2); format: in vivo, C57BL/6J mice
Protocol: Five groups (n=8) of adult female C57BL/6J mice (obtained from Shanghai Lingchang Bio-Technology Co.) were inoculated in the right lower flank with 1×10^6 cells of the syngeneic colon carcinoma cell line MC38. When average tumor size reached about 50 mm^3 (day 1), animals received either pretreatment consisting of p.o. SMAC mimetic Debio 1143 (Debiopharm) at a dose of 100 mg/kg or vehicle as indicated in Table 1. The dosing was repeated on each day for 7 days (day 1-7). On the subsequent day (day 8), animals of a vehicle-treated group and a Debio 1143-pretreated group were given i.p. 10 mg/kg of control antibody rlgG2b (Clone: LTF-2, BioXcell). Control antibody was administered twice weekly until the end of the study. Another set of two groups (vehicle- and Debio 1143-pretreated animals) received i.p. 10 mg/kg of anti-PD-L1 antibody (Mouse surrogate antibody, anti-mouse PD-L1, Clone: 10F.9G2, BioXcell). Administration was repeated twice weekly as for the control antibody. A final group of Debio 1143-pretreated animals received both anti-PD-L1 antibody as well as was continued on daily Debio 1143. Tumor volumes and body weights were assessed trice weekly. Tumor size was measured in two dimensions using a caliper, and the volume was expressed in mm^3 using the formula: V=0.5 a×b^2 where a and b are the long and short diameters of the tumor, respectively.

[3] = in vivo; cited from earlier work
T-cell = settings: in the context of a primary T-cell receptor stimulus; cited from earlier work
[4] = test system: syngeneic colon carcinoma cell line MC-38; assay: MC38 syngeneic tumor model, birinapant or LCL161 pretreatment then anti-PD-L1 (Example 3); format: in vivo, C57BL/6J mice
Protocol: 72 adult female C57BL/6J mice (obtained from Shanghai Lingchang Bio-Technology Co.) were inoculated subcutaneously at the right lower flank with 1×10^6 cells of the syngeneic colon carcinoma cell line MC-38 in 0.1 ml of PBS. Tumor volumes were measured three times weekly in two dimensions using a caliper, and the volume was expressed in mm^3 using the formula: V=(L×W×W)/2, where V is tumor volume, L is tumor length (the longest tumor dimension) and W is tumor width (the longest tumor dimension perpendicular to L). All animals were randomly allocated to the 9 different study groups with a mean tumor size of 52 mm^3 based on the “Matched distribution” randomization method (StudyDirector™ software, version 3.1.399.19) and treatments started (denoted as day 1). Dosing as well as tumor and body weight measurement were conducted in a Laminar Flow Cabinet.
On day 1, part of the animals received either a 1 week pretreatment consisting of i.p. SMAC mimetic birinapant at a dose of 30 mg/kg, or its vehicle, in a biweekly schedule as indicated in Table 2. The other part of the animals received either a 1 week pretreatment consisting of p.o. SMAC mimetic LCL161 at a dose of 75 mg/kg, or its vehicle, in a biweekly schedule as indicated in Table 2.
On day 8, vehicle or SMAC mimetic pretreated animals were then further treated until study end with either biweekly i.p. 10 mg/kg of control antibody rlgG2b (Clone: LTF-2, BioXcell), or biweekly i.p. 10 mg/kg of anti-PD-L1 antibody (Mouse surrogate antibody, anti-mouse PD-L1, Clone: 10F.9G2, BioXcell). 1 group of animals that had received 1 week of birinapant pretreatment, and 1 group of animals that had received 1 week of LCL161 pretreatment, were each continued on the respective SMAC mimetic during the period of anti-PD-L1 treatment until study end.

RCC = RCC patients; cited from earlier work
melanoma = melanoma patients; cited from earlier work
[5] = test system: advanced treatment-refractory NSCLC; settings: advanced treatment-refractory NSCLC patients; cited from earlier work

T1 sequence (Q13490 whole entry): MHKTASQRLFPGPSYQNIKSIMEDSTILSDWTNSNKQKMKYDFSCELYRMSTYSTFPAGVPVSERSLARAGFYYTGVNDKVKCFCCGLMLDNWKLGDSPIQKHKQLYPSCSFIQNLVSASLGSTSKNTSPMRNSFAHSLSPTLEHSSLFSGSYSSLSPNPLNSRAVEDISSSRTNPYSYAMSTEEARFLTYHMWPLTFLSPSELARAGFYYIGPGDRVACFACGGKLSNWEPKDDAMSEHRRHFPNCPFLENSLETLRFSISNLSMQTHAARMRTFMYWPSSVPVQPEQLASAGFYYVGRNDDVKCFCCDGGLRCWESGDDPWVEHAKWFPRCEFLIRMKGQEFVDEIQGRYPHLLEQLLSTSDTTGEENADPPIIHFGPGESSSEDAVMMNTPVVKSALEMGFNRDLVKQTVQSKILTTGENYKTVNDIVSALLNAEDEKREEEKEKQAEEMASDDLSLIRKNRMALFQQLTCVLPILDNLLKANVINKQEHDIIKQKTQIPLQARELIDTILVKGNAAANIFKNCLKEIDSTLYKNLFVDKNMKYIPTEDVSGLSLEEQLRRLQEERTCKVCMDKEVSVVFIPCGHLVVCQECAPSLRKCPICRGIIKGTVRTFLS

CN[C@@H](C)C(=O)N[C@H](C(=O)N1CCC[C@H]1C(=O)N[C@H](C(=O)NCCCCCCNC(=O)[C@@H](NC(=O)[C@@H]1CCCN1C(=O)[C@@H](NC(=O)[C@H](C)NC)C1CCCCC1)C(c1ccccc1)c1ccccc1)C(c1ccccc1)c1ccccc1)C1CCCCC1 [BV6] (I: H-[NMeA][Chg]P[Dip] / II: H-[NMeA][Chg]P[Dip]; linker I:C-II:C via Hexamethylenediamine)
function of antigen-presenting cells (dendritic cell maturation, type-II to type-I macrophage conversion) (antigen-presenting cells): modulate the function of antigen-presenting cells

CN[C@@H](C)C(=O)N[C@H]1CN(C(=O)CC(C)C)CC[C@H]2CC[C@@H](C(=O)NC(c3ccccc3)c3ccccc3)N2C1=O [Debio 1143]
levels of cIAP1 in the tumors (cIAP1): reduced levels of cIAP1 in the tumors of most patients; also recorded: induces the degradation of cIAP1 | anti-cancer effect (median tumor volume) ([1]; Debio 1143 100 mg/kg p.o. QD day 1-7 pretreatment alone, then oral vehicle (group 3)): modest anti-cancer effect | anti-cancer effect (median tumor volume) ([1]; Debio 1143 100 mg/kg p.o. QD day 1-7 pretreatment, then anti-PD-1 10 mg/kg i.p. BIW (group 4)): small additional benefit to Debio 1143 pretreatment alone; also recorded: sensitizes CT26 tumors to a subsequent treatment with an anti-PD-1 antibody | anti-cancer effect (median tumor volume) ([1]; Debio 1143 pretreatment, then anti-PD-1 plus continued daily Debio 1143 (group 5)): significant additional benefit | number of CD8+ T cells in the tumor microenvironment (CD8+ T-lymphocytes): increase in CD8+ T cell number being significant; also recorded: increases the number | frequency / number of PD-L1-expressing tumor cells (PD-L1): also increased; also recorded: increases the number | percentage / number of immune cells expressing PD-L1 in tumor (PD-L1): increased significantly; also recorded: increases the number | percentage / number of immune cells expressing PD-1 in tumor (PD-1): increased significantly; also recorded: increases the number | number of CD4+ T cells in the tumor microenvironment (CD4+ T-lymphocytes): both increased; also recorded: increases the number | anti-cancer effect (median tumor volume) ([2]; Debio 1143 100 mg/kg p.o. QD day 1-7 pretreatment alone, then control antibody rlgG2b (group 2)): modest anti-cancer effect | anti-cancer effect (median tumor volume) ([2]; Debio 1143 100 mg/kg p.o. QD day 1-7 pretreatment, then anti-PD-L1 10 mg/kg i.p. BIW (group 4)): profound anti-cancer effect; also recorded: sensitizes MC38 tumors to a subsequent treatment with an anti-PD-L1 antibody | anti-cancer effect (median tumor volume) ([2]; Debio 1143 pretreatment day 1-7, then anti-PD-L1 plus continued daily Debio 1143 (group 5), compared with group 4): small additional benefit

CN[C@@H](C)C(=O)N[C@H](C(=O)N1CC[C@H]2CCN(CCc3ccccc3)C[C@H]21)C1CCCCC1 [LBW242]
efficacy in a prophylactic cancer vaccine model [3]: enhanced efficacy | anti-tumor immune responses (T-cell proliferation, co-stimulation, activation) (T-cell): increase anti-tumor immune responses

CN[C@@H](C)C(=O)N[C@H](C(=O)N1CCC[C@H]1c1nc(C(=O)c2ccc(F)cc2)cs1)C1CCCCC1 [LCL161]
anti-cancer effect (median tumor volume) ([4]; LCL161 75 mg/kg p.o. BIW 1 week pretreatment alone, then control antibody rlgG2b (group 7)): modest anti-cancer effect | anti-cancer effect (median tumor volume) ([4]; LCL161 75 mg/kg p.o. BIW 1 week pretreatment, then anti-PD-L1 10 mg/kg i.p. BIW (group 8)): small additional benefit to LCL161 pretreatment alone; also recorded: sensitizes MC38 tumors to a subsequent treatment with an anti-PD-L1 antibody | anti-cancer effect (median tumor volume) ([4]; LCL161 pretreatment, then anti-PD-L1 plus continued LCL161 (group 9)): significant additional benefit

CC[C@H](NC(=O)[C@H](C)NC)C(=O)N1C[C@@H](O)C[C@H]1Cc1c(-c2[nH]c3cc(F)ccc3c2C[C@@H]2C[C@H](O)CN2C(=O)[C@H](CC)NC(=O)[C@H](C)NC)[nH]c2cc(F)ccc12 [birinapant]
function of antigen-presenting cells (dendritic cell maturation, type-II to type-I macrophage conversion) (antigen-presenting cells): modulate the function of antigen-presenting cells | anti-cancer effect (median tumor volume) ([4]; birinapant 30 mg/kg i.p. BIW 1 week pretreatment alone, then control antibody rlgG2b (group 2)): modest anti-cancer effect | anti-cancer effect (median tumor volume) ([4]; birinapant 30 mg/kg i.p. BIW 1 week pretreatment, then anti-PD-L1 10 mg/kg i.p. BIW (group 4)): singificant anti-cancer effect; also recorded: sensitizes MC38 tumors to a subsequent treatment with an anti-PD-L1 antibody | anti-cancer effect (median tumor volume) ([4]; birinapant pretreatment, then anti-PD-L1 plus continued birinapant (group 5), compared with group 4): small additional benefit

Nivolumab: fully human IgG4 anti-PD-1 monoclonal antibody from Bristol-Myers Squibb/Ono Pharmaceuticals
Objective response rate (RCC): 20% | Overall survival (RCC): 22.4 months | Objective response rate (melanoma): 31% | Overall survival (melanoma): 16.8 months | Objective response rate [5]: 17% | Overall survival [5]: 9.9 months
